Measurements: patent US5162361A, “Method of treating diseases associated with elevated levels of interleukin 1” (priority 1990, dated 1992)

Key:
IL-1α mRNA = assay: Northern blot analysis of IL-1α mRNA expression; type: cell-based, rat; conditions: 1 μM dexamethasone, LPS, 3 h, FIG. 2
Procedure: Specific transcription of IL-1α mRNA synthesis was assessed by incubating cells with and without 10 μM pentamidine or 1 μM of the corticosteroid, dexamethasone in the presence or absence of lipopolysaccharide (LPS). At the end of a 3 hour incubation period, the cells were lysed and the total cellular RNA was collected, blotted onto a nitrocellulose filter and probed with ^32 P-labeled IL-1α cDNA. […] In contrast, mRNA for IL-1α was not seen in dexamethasone treated cells.
For determination of IL-1 mRNA levels, cells (4×10^6) were cultured with or without pentamidine (10 μM) or dexamethasone (1 μM) in media with 10% FCS in the presence or absence of LPS (1 μg/ml) for 3 hours. Total cellular RNA was isolated by quanidinium-thiocyanate phenolchloroform extraction (P. Chomczynski et al., Anal. Bioch. 162, 156 (1987)). RNA (10 μg) was electrophoresed in 1.2% agarose gels as previously described (H. Leharch et al., Biochemistry 4743 (1977)). […] Hybridizing species were detected by autoradiography at -70° C., using Kodak XAR film with an intensifying screen. The total RNA levels per lane on the gel was assessed by monitoring 28S and 18S, and expression of α-tubulin mRNA. Accumulation of α-tubulin mRNA was determined by probing the same blot with ^32 P labeled 30 mer oligonucleotide (Du Pont).

IL-1α = assay: Western blot analysis of cell associated IL-1α; type: cell-based, rat; conditions: 1 μM dexamethasone, LPS, 24 h, FIG. 3
Procedure: To determine the effect of pentamidine on cellular stores of IL-1, intracellular levels of IL-1 were quantitated by incubating cells with and without 10 μM pentamidine and LPS for 24 hours. At the end of this incubation period, the cells were washed, lysed and the total cellular protein was collected for Western blot analysis. […] This is in agreement with the generally accepted existence of a precursor form of IL-1 with a molecular weight in the range of 31-33 kD (J. Giri et al., J. Immunol. 134, 343 (1985)).
Cells (4×10^6 cells) were oultured with pentamidine (10μM) or dexamethasone (1μM) in media with 10% fetal calf serum (FCS) in the presence or absence of LPS (1 μg/ml) for 24 hours. The cells were washed twice in HBSS and then scraped in homogenizing buffer (HBSS containing 0.1 mM EGTA, 1 mM pmsf, 10 μg/ml leupeptin, 1 KIU/ml aprotinin, pH 7.4). The cell suspension was left on ice for 10 minutes at which time the swollen cells were disrupted by sonication. The nuclei and undisrupted cells were pelleted by centrifugation at 800 rpm for 10 minutes and were discarded. The supernatant was centrifugated at 39,000 rpm for 1 hour at 4° C. After centrifugation, the supernatants containing cytosolic components of the cell was carefully removed and was used as the cytosol fraction. […] Molecular weight references were determined by running one lane with pre-stained molecular weight standards.

Ia antigen = Ia antigen expression on alveolar macrophages (flow cytometry); type: cell-based, rat
Procedure: ^a Ia antigen expression - Alveolar macrophages were diluted to 1×10^6 cells/ml in RPMI (supplemented as above). Three mls. (3×10^6 cells) were added to sterile teflon vials and treated with pentamidine or dexamethasone for 4 hours at 37° C., 5% CO2, followed by the addition of rat γ IFN at 100 U/ml. Cells were incubated for 18 hours, pelleted, counted and adjusted to 1×10^7 cells/ml in ice cold standard buffer (HBSS, 0.1% Na azide, 1% BSA).
Aliquots of cells (50 μl in quadruplicate) from the various treatment groups were plated to a 96 well round bottom plate (Linbro) and incubated for 45 minutes on ice with 50 μl aliquots of one of the following: monoclonal anti-rat OXS (Sera-lab), monoclonal anti-mouse OX6 (Sera-lab), both at 0.5 μg/5×10^5 cells, or HBSS (control). Cells were washed 3× with standard buffer and incubated for 45 minutes on ice, in the dark, with 50 μl of phycoerythrin-labeled goat anti-mouse IGGI (Fisher Biotech) at 1 μg/5×10^5 cells. Cells were washed 3× with standard buffer, resuspended in 0.4 ml of standard buffer and analyzed via flow cytometry.

[1] = test system: Pulmonary alveolar macrophages; assay: Phagocytosis by pulmonary alveolar macrophages (Fluoresbrite beads, flow cytometry); type: cell-based, rat
Procedure: One ml aliquots were added to sterile teflon vials (Nalgene) along with pentamidine or dexamethasone (Sigma) as indicated, and incubated for 4 hours at 37° C., 5% CO2. Fluoresbrite carboxylate beads, 1.73 μm (Polysciences) were used to achieve a 100:1 bead to cell ratio and the suspension was incubated for 45 minutes at 37° C., 5% CO2 with gentle agitation. Cell suspensions were then layered over 3 mls. of RPMI/FCS+0.3% BSA, and cells pelleted at 150 xg for 10 minutes. Supernates were discarded and cells resuspended in 1 ml of RPMI/FCS for analysis via flow cytometry. The data presented above is the mean of the percentage of cells taking up one or more beads of triplicate cultures.

IL-1 [2] = assay: Western blot analysis of IL-1 on cellular protein from imidazoline treated cells; type: cell-based, rat
Description: In addition, Western blot analysis of IL-1 on cellular protein derived from imidazoline treated cells was recently performed. This method definitively identifies the presence or absence of the protein using electrophoretic techniques to separate by molecular weight IL-1 from other proteins followed by staining with specific antibody fog IL-1.

IL-1 [3] = assay: IL-1 release from alveolar macrophages (thymocyte co-stimulation bioassay); type: cell-based, rat; conditions: for Effect on IL-1: LPS, 24 h, FIG. 7
Procedure: Pulmonary alveolar macrophages were collected by lavaging the lungs as previously described (D. B. Warheit et al., Am. Rev. Resp. Dis. 134, 128 (1986)). Once washed and resuspended, the macrophages were allowed to adhere to plastic plates in serum free RPMI 1640 containing 25 mM Hepes, 2 mM L-glutamine, 50 μg/ml gentamicin and streptomycin (media). Following adherence for 1 hour at 37° C. in 5% CO2, the plates were washed once with warm media to remove nonadherent cells, cells were resuspended in media with 10% FCS and treated with or without pentamidine at the indicated concentration and LPS (5 ng/ml) for 24 hours). IL-1 activity was assayed using a thymocyte co-stimulation assay (S. B. Mizel in Methods in Macrophage Biology, Editors, Herscowitz and Holden (1981)). Single cell thymocyte suspension from B6C3F1 mice (female, 5-9 weeks old) at a concentration of 2.0×10^7 /ml in media containing 10% FCS, and 2.5×10^-5 M 2-β mercaptoethanol were added in 50 μl aliquots to each well of flat bottom microtiter plates along with 50 μl of PHA at 2.5 μg/ml. Serial dilution of supernatants or cells were made in media with 10% FCS and added in 100 μl aliquots. IL-1 activity was measured by quantifying the uptake of 3Hthymidine during the last 6 hours of a 72 hour culture at 37° C. and 5% CO2. Cells were harvested onto glass fiber filters and filter associated radioactivity counted in a scintillation counter.
(§1) In vitro studies were performed by taking alveolar macrophages from normal healthy rat lungs and culturing them in the presence of an imidazoline with the inducer lipopolysaccharide for 24 hours. The standard bioassay for IL-1 was performed (see above).

tumor necrosis factor = assay: Tumor necrosis factor secretion by rat macrophages; type: cell-based
Procedure: It has also been observed that pentamidine (10^-5 M) blocks the secretion of tumor necrosis factor in rat macrophages (42 units/ml - pentamidine vs. 82 units/ml - control), as well as tumor necrosis factor and IL-6 in human macrophages, where at a concentration of 10^-5 M pentamidine, tumor necrosis factor and IL-6 secretion are suppressed >50%. These additional cytokines are also very influential mediators in inflammatory diseases.
as §1

rat macrophages = assay: In vitro toxicity to the cell (LD50); type: cell-based; conditions: imidazoline, summary statement; compared with pentamidine
[4] = In vitro toxicity to the cell (LD50); type: cell-based; conditions: rat macrophages

Row | Structure (SMILES) | IL-1α mRNA expression (IL-1α mRNA) | Cell associated IL-1α (Western blot) (IL-1α) | Ia Antigen Expression (MFI) (Ia antigen; Dexamethasone 10^-6 M (control 459), p < 0.025 vs. control) | Mean concentration of Ia molecules on Ia positive cells (Ia antigen; result in words) | Phagocytic Index ([1]; Dexamethasone 10^-6 M (control 32), p < 0.025 vs. control) [%] | Phagocytic capacity of alveolar macrophages ([1]; result in words) | Block of IL-1 secretion (Western blot) (IL-1 [2]) | Effect on IL-1 (IL-1 [3]; imidazoline 10^-6 M, 10^-5 M and 10^-4 M) | Effect on IL-1 (IL-1 [3]; imidazoline 10^-8 M) | Block of IL-1 in rat macrophages (IL-1 [3]; imidazoline, summary statement) | Tumor Necrosis Factor (tumor necrosis factor; 10^-5 M Imidazoline, LPS, 24 h (control 83 ± 11)) [units/ml] | Block of tumor necrosis factor in rat macrophages (tumor necrosis factor; imidazoline, summary statement) | Toxicity to the cell (rat macrophages) | CC50 [4] [µM]
1 | C[C@@H]1C[C@H]2[C@@H]3CCC4=CC(=O)C=C[C@]4(C)[C@@]3(F)[C@@H](O)C[C@]2(C)[C@@]1(O)C(=O)CO [Dexamethasone] | not seen | did not express the precursor from of IL-1α | 253 | clearly demonstrated its broad immunosuppressive action on these two macrophage functions | 25 | clearly demonstrated its broad immunosuppressive action on these two macrophage functions |  |  |  |  |  |  |  | 
2 | c1cc(C2=NCCN2)ccc1OCCCCCOc1ccc(C2=NCCN2)cc1 [Imidazoline, 1,5-di(4-imidazolinophenoxy)pentane] |  |  |  |  |  |  | blocks the secretion of IL-1 in a similar manner to pentamidine | blocked IL-1 in a dose related manner | No effect | ability to block IL-1 | 46 ± 19 | ability to block IL-1 and tumor necrosis factor | less toxic to the cell | > 100
